Each compound was assayed against Receptor-interacting serine/threonine-protein kinase 2 (Homo sapiens, UniProt O43353) (assay: Inhibition of RIPK2 (unknown origin) incubated for 1 hr by Lanthascreen TR-FRET assay).
Receptor-interacting serine/threonine-protein kinase 2, sequence (O43353 whole entry): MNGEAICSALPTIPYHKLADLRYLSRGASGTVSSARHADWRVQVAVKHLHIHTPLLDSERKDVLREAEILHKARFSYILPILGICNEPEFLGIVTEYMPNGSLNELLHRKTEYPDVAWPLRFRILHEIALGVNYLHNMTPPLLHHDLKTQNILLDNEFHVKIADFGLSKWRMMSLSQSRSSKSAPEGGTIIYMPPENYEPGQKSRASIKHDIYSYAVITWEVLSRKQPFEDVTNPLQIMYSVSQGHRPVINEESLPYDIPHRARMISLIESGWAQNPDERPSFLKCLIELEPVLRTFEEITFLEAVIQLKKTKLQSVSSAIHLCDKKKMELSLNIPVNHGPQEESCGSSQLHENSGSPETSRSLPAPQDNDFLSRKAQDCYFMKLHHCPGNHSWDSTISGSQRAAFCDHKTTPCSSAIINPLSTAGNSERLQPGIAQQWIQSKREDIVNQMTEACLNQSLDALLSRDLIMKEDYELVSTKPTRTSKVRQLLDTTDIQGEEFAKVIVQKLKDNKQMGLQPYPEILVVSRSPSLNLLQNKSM

Row | IC50 | SMILES
1 | ≤ 10 nM | CC1C(c2cc3c(Nc4ccc5scnc5c4)c(F)cnc3s2)CCCN1C (stereo unspecified)
2 | ≤ 10 nM | C1=C(c2cc3c(Nc4ccc5scnc5c4)ccnc3s2)CCNCC1
3 | ≤ 10 nM | C1=C(c2cc3c(Nc4ccc5scnc5c4)ccnc3s2)C2(CCOC2)NC1 (stereo unspecified)
4 | ≤ 10 nM | CC1NCCC=C1c1cc2c(Nc3ccc4scnc4c3)ccnc2s1 (stereo unspecified)
5 | ≤ 10 nM | C1=C(c2cc3c(Nc4ccc5scnc5c4)ccnc3s2)C2(CCOCC2)NC1
6 | ≤ 10 nM | CC1NCCC1c1cc2c(Nc3cc4ncsc4cc3F)ccnc2s1 (stereo unspecified)
